Tests used:
Cytotoxicity test = format: cell-based; conditions: human, TZM-bl cells
Solubility in water = format: physicochemical

## enfuvirtide
Cytotoxicity test
  CC50: > 100 µM
Solubility in water
  aqueous solubility (in words): negligible

From publication PMC7115413 (European Journal of Medicinal Chemistry, 2016)
